# Assays:
# 3T3-L1 adipocytes = assay: Insulin-induced glucose uptake by 3T3-L1 adipocytes after 4-HNE / H2O2 treatment (MRM); type: cell-based, mouse; settings: 500 μM for 4 hour, then 100 nM insulin for 60 minutes
# Experimental: 3T3-L adipocytes (1×10^6) were treated with either 500 μM of 4-HNE or H2O2 or combination of both for 4 hour and were then stimulated with 100 nM insulin for 60 minutes. The glucose uptake is measured by a specific MRM method.
# GLUT4 = molecular target: T1, GLUT4 (Homo sapiens, UniProt P14672); assay: HNE-induced GLUT4 carbonylation (K264-HNE adduct) by MRM in 3T3-L1 adipocytes overexpressing GLUT4-SNAP; type: cell-based; settings: 20 μM for 4 hour, 3T3-L1 cells overexpressing GLUT4
# T1 construct: SNAP (SNAP-tag fusion partner); expressed in transfected cells; host or cells: 3T3-L1 adipocytes, retrovirally transduced
# T1 sequence (P14672 1-509): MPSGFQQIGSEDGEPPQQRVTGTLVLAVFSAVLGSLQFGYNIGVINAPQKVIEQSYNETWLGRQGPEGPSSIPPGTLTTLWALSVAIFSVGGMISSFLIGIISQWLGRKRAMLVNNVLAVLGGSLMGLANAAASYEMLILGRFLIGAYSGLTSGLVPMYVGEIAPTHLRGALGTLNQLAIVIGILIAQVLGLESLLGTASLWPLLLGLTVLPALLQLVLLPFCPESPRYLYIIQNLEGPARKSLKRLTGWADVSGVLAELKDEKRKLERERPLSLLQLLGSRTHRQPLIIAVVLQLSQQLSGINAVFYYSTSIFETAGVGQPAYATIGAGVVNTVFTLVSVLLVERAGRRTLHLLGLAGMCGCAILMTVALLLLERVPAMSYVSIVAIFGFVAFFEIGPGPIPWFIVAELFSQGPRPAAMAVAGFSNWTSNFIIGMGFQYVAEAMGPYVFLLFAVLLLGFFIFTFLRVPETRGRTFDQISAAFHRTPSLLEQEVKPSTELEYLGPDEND
# Experimental: A GLUT4-SNAP fusion construct is generated. 3T3-L1 adipocytes were then retrovirally transduced with the construct to overexpress the GLUT4-SNAP protein. Twenty-four hours after the transduction, the cells were treated with and without 20 μM of 4-HNE for an additional 4 hours. This 4-HNE dose is chosen because it is similar to the physiological levels and is non-toxic. In order to identify and quantitate GLUT4 carbonylation (K264 NHE-adduct or R265 and R246 glutamic semialdehyde adducts), a mass spectroscopy-based multiple reaction monitoring (MRM) method is developed and validated.
# […] of the GLUT4 peptide found in humans were used for quantitation.
structure (smiles),measurement,setting,value
OO [Example H2O2],reduction of insulin-induced glucose uptake,3T3-L1 adipocytes,66%
"CCCCCC(O)/C=C/C=O (stereo not drawn) [Example 4-HNE, 4-hydroxynonenal]",formation of the K264-HNE adduct (GLUT4 carbonylation),GLUT4,induced the formation of the K264-HNE adduct
same,reduction of insulin-induced glucose uptake,3T3-L1 adipocytes,32%
